This note sets out measurements from ChEMBL document CHEMBL1138545, “Synthesis and antimicrobial activities of some new triazolothiadiazoles bearing 4-methylthiobenzyl moiety” (2009).

In experiment [1] the test system is Trichophyton mentagrophytes. Put plainly: Antifungal activity against Trichophyton mentagrophytes after 3 to days by serial plate dilution method. Type of experiment: functional. To be noted: for MIC: Trichophyton mentagrophytes.
Another experiment has as its system Candida albicans. Put plainly: Antifungal activity against Candida albicans NICM 300 after 3 to days by serial plate dilution method. It counts as functional. Conditions: for MIC: Candida albicans, NICM 300.
For experiment [2], the system named is Staphylococcus aureus. Put plainly: Antibacterial activity against Staphylococcus aureus ATTC […] after 24 hrs by the disk diffusion method. To be noted: for MIC: Staphylococcus aureus, 24 h. It counts as functional.
The test system of a further experiment is Aspergillus fumigatus. Kind of experiment: Antifungal activity against Aspergillus fumigatus NICM 902 after 3 to days by serial plate dilution method. It counts as functional. Conditions: for MIC: Aspergillus fumigatus, NICM 902.
The subject of a further experiment is Aspergillus flavus. Kind of experiment: Antifungal activity against Aspergillus flavus NICM 524 after 3 to days by serial plate dilution method. It counts as functional. To be noted: for MIC: Aspergillus flavus, NICM 524.
Experiment [3] deals with Escherichia coli. Kind of experiment: Antibacterial activity against Escherichia coli ATTC 25922 after 24 hrs by the disk diffusion method. Conditions: for MIC: Escherichia coli, ATTC 25922, 24 h. Type of experiment: functional. (In general: Agar diffusion results depend on both activity and mobility in agar.)
Experiment [4] relates to Klebsiella pneumoniae. Kind of experiment: Antibacterial activity against Klebsiella pneumoniae after 24 hrs by the disk diffusion method. Type of experiment: functional. To be noted: for MIC: Klebsiella pneumoniae, 24 h.
The test system of experiment [5] is Pseudomonas aeruginosa. Put plainly: Antibacterial activity against Pseudomonas aeruginosa ATTC 27853 after 24 hrs by the disk diffusion method. To be noted: for MIC: Pseudomonas aeruginosa, ATTC 27853, 24 h. It counts as functional.
The test system of experiment [6] is Klebsiella pneumoniae. Kind of experiment: Antibacterial activity against Klebsiella pneumoniae at 10 ug/mL after 24 hrs by the disk diffusion method. It counts as functional.
Experiment [7] deals with Escherichia coli. Put plainly: microbe, parasite or virus in culture. To be noted: ATTC 25922, 24 h.
Description: Antibacterial activity against Escherichia coli ATTC 25922 at 10 ug/mL after 24 hrs by the disk diffusion method
Experiment [8] has as its system Staphylococcus aureus. Kind of experiment: microbe, parasite or virus in culture. Conditions: ATTC 25922, 24 h.
Description: Antibacterial activity against Staphylococcus aureus ATTC 25922 at 10 ug/mL after 24 hrs by the disk diffusion method
Experiment [9] deals with Pseudomonas aeruginosa. Put plainly: microbe, parasite or virus in culture. To be noted: ATTC 27853, 24 h, read-out: IZ.
Description: Antibacterial activity against Pseudomonas aeruginosa ATTC 27853 at 10 ug/mL after 24 hrs by the disk diffusion method

Values after ≈ are worked out from the molar mass of the structure shown.

Consider `CSc1ccc(Cc2nnc3sc(-c4ccc(-c5ccc(Cl)cc5[N+](=O)[O-])o4)nn23)cc1`, for which the “diameter of the inhibition zone (DIZ)” value in [1] worked out at 17 mm; with Candida albicans it was 18 mm; in the experiment with Aspergillus fumigatus, 22 mm; in the experiment on Aspergillus flavus, 18 mm. Also, the MIC in experiment [1] was determined as 6 µg/mL (≈ 12.4 µM); against Candida albicans it was 12.5 µg/mL (≈ 25.8 µM); in the experiment with Staphylococcus aureus [2], 12.5 µg/mL (≈ 25.8 µM); in the experiment with Aspergillus fumigatus it was 6 µg/mL (≈ 12.4 µM); in the experiment on Aspergillus flavus, 12.5 µg/mL (≈ 25.8 µM); against Escherichia coli [3], 6 µg/mL (≈ 12.4 µM). The MIC in the experiment on Klebsiella pneumoniae [4] and with Pseudomonas aeruginosa [5] was 6 µg/mL (≈ 12.4 µM) each time. Further, the “inhibition zone (IZ)” value in the experiment on Staphylococcus aureus [2] was 18 mm; with Escherichia coli [3] it was 19 mm; in the experiment with Klebsiella pneumoniae [4], 23 mm; in the experiment on Pseudomonas aeruginosa [5] it was 18 mm.
As to `CSc1ccc(Cc2nnc3sc(-c4ccc(-c5cc(Cl)ccc5Cl)o4)nn23)cc1`, the “diameter of the inhibition zone (DIZ)” value in experiment [1] worked out at 17 mm; in the experiment with Candida albicans it was 20 mm; in the experiment with Aspergillus fumigatus, 13 mm; in the experiment with Aspergillus flavus, 18 mm. Also, the MIC is 12.5 µg/mL (≈ 26.4 µM) in experiment [1]; 6 µg/mL (≈ 12.7 µM) with Candida albicans; 25 µg/mL (≈ 52.8 µM) in the experiment on Staphylococcus aureus [2]; 25 µg/mL (≈ 52.8 µM) with Aspergillus fumigatus; 6 µg/mL (≈ 12.7 µM) in the experiment on Aspergillus flavus; 12.5 µg/mL (≈ 26.4 µM) in the experiment on Escherichia coli [3]. Further, the MIC in the experiment on Klebsiella pneumoniae [4] was determined as 12.5 µg/mL (≈ 26.4 µM); with Pseudomonas aeruginosa [5], 6 µg/mL (≈ 12.7 µM). Moreover, the “inhibition zone (IZ)” value with Staphylococcus aureus [2] stood at 16 mm; with Escherichia coli [3] it was 16 mm; in the experiment with Klebsiella pneumoniae [4], 20 mm; in the experiment with Pseudomonas aeruginosa [5], 18 mm.
For the compound `CSc1ccc(Cc2nnc3sc(-c4ccc(O)cc4)nn23)cc1`, the “diameter of the inhibition zone (DIZ)” value was found to be 18 mm in [1], 20 mm in the experiment with Candida albicans, 22 mm in the experiment on Aspergillus fumigatus and 18 mm in the experiment on Aspergillus flavus. The MIC in experiment [1] was 6 µg/mL (≈ 16.9 µM); against Candida albicans it was 6 µg/mL (≈ 16.9 µM); against Staphylococcus aureus [2], 25 µg/mL (≈ 70.5 µM); against Aspergillus fumigatus, 6 µg/mL (≈ 16.9 µM); in the experiment on Aspergillus flavus, 12.5 µg/mL (≈ 35.3 µM); in the experiment with Escherichia coli [3] it was 25 µg/mL (≈ 70.5 µM). The MIC in the experiment on Klebsiella pneumoniae [4] and in the experiment on Pseudomonas aeruginosa [5] was 25 µg/mL (≈ 70.5 µM) throughout. The “inhibition zone (IZ)” value in the experiment on Staphylococcus aureus [2] was determined as 12 mm; in the experiment with Escherichia coli [3] it was 10 mm; in the experiment with Klebsiella pneumoniae [4] it was 17 mm; with Pseudomonas aeruginosa [5] it was 12 mm.
Consider `CSc1ccc(Cc2nnc3sc(-c4ccc([N+](=O)[O-])cc4)nn23)cc1`, for which the “diameter of the inhibition zone (DIZ)” value in experiment [1] is reported as 11 mm; in the experiment on Candida albicans, 14 mm; with Aspergillus fumigatus it was 15 mm; with Aspergillus flavus, 11 mm. Besides, the MIC in [1] turned out to be 25 µg/mL (≈ 65.2 µM); against Candida albicans it was 25 µg/mL (≈ 65.2 µM); in the experiment on Staphylococcus aureus [2] it was 12.5 µg/mL (≈ 32.6 µM); against Aspergillus fumigatus, 25 µg/mL (≈ 65.2 µM); in the experiment with Aspergillus flavus it was 25 µg/mL (≈ 65.2 µM); against Escherichia coli [3], 12.5 µg/mL (≈ 32.6 µM). Also, the MIC against Klebsiella pneumoniae [4] was 12.5 µg/mL (≈ 32.6 µM); with Pseudomonas aeruginosa [5], 6 µg/mL (≈ 15.6 µM). Further, the “inhibition zone (IZ)” value in the experiment with Staphylococcus aureus [2] came out at 16 mm; in the experiment on Escherichia coli [3], 17 mm; in the experiment on Klebsiella pneumoniae [4], 13 mm; with Pseudomonas aeruginosa [5] it was 18 mm.
In the case of `CSc1ccc(Cc2nnc3sc(Cc4ccccc4)nn23)cc1`, the “diameter of the inhibition zone (DIZ)” value was determined as 12 mm in experiment [1], 17 mm with Candida albicans, 13 mm in the experiment with Aspergillus fumigatus and 10 mm in the experiment with Aspergillus flavus. In addition, the MIC amounted to 25 µg/mL (≈ 70.9 µM) in experiment [1]; 6 µg/mL (≈ 17 µM) against Candida albicans; 25 µg/mL (≈ 70.9 µM) in the experiment on Staphylococcus aureus [2]; 25 µg/mL (≈ 70.9 µM) with Aspergillus fumigatus; 25 µg/mL (≈ 70.9 µM) against Aspergillus flavus; 25 µg/mL (≈ 70.9 µM) in the experiment on Escherichia coli [3]. In addition, the MIC with Klebsiella pneumoniae [4] and in the experiment on Pseudomonas aeruginosa [5] was 25 µg/mL (≈ 70.9 µM) throughout. The “inhibition zone (IZ)” value in the experiment on Staphylococcus aureus [2] turned out to be 11 mm; in the experiment on Escherichia coli [3], 11 mm; in the experiment on Klebsiella pneumoniae [4], 14 mm; in the experiment with Pseudomonas aeruginosa [5] it was 15 mm.
For the compound `CSc1ccc(Cc2nnc3sc(-c4ccc(F)cc4)nn23)cc1`, the “diameter of the inhibition zone (DIZ)” value in experiment [1] was 17 mm; with Candida albicans, 10 mm; in the experiment with Aspergillus fumigatus, 19 mm; in the experiment with Aspergillus flavus, 16 mm. Also, the MIC in experiment [1] worked out at 12.5 µg/mL (≈ 35.1 µM); in the experiment with Candida albicans, 25 µg/mL (≈ 70.1 µM); in the experiment on Staphylococcus aureus [2], 12.5 µg/mL (≈ 35.1 µM); in the experiment on Aspergillus fumigatus, 12.5 µg/mL (≈ 35.1 µM); with Aspergillus flavus, 12.5 µg/mL (≈ 35.1 µM); against Escherichia coli [3] it was 12.5 µg/mL (≈ 35.1 µM). Besides, the MIC against Klebsiella pneumoniae [4] is 6 µg/mL (≈ 16.8 µM); with Pseudomonas aeruginosa [5], 12.5 µg/mL (≈ 35.1 µM). In addition, the “inhibition zone (IZ)” value in the experiment on Staphylococcus aureus [2] is reported as 18 mm; in the experiment on Escherichia coli [3], 19 mm; with Klebsiella pneumoniae [4] it was 25 mm; in the experiment on Pseudomonas aeruginosa [5], 17 mm.
`O=C(O)c1cn(C2CC2)c2cc(N3CCNCC3)c(F)cc2c1=O` [CIPROFLOXACIN]: the MIC against Klebsiella pneumoniae [6] is 6 µg/mL (≈ 18.1 µM); in the experiment with Escherichia coli [7] it was 6 µg/mL (≈ 18.1 µM); in the experiment with Staphylococcus aureus [8] it was 12.5 µg/mL (≈ 37.7 µM). Moreover, the values for the zone of inhibition at 10 µg/mL in the experiment on Klebsiella pneumoniae [6] (read-out: IZ), with Staphylococcus aureus [8] (read-out: IZ) and with Pseudomonas aeruginosa [9] were 25 mm, 19 mm and 18 mm, respectively.
Consider `CSc1ccc(Cc2nnc3sc(-c4ccc(-c5ccc(Br)cc5)o4)nn23)cc1`, for which the “diameter of the inhibition zone (DIZ)” value in experiment [1] was determined as 20 mm; in the experiment on Candida albicans, 18 mm; in the experiment with Aspergillus fumigatus, 20 mm; in the experiment on Aspergillus flavus, 17 mm. Also, the MIC in experiment [1] stood at 6 µg/mL (≈ 12.4 µM); against Candida albicans, 6 µg/mL (≈ 12.4 µM); in the experiment on Staphylococcus aureus [2], 25 µg/mL (≈ 51.7 µM); in the experiment with Aspergillus fumigatus, 6 µg/mL (≈ 12.4 µM); in the experiment on Aspergillus flavus, 12.5 µg/mL (≈ 25.9 µM); with Escherichia coli [3] it was 25 µg/mL (≈ 51.7 µM). Also, the MIC against Klebsiella pneumoniae [4] and against Pseudomonas aeruginosa [5] was 25 µg/mL (≈ 51.7 µM) throughout. Moreover, the “inhibition zone (IZ)” value with Staphylococcus aureus [2] was 12 mm; in the experiment with Escherichia coli [3], 11 mm; in the experiment on Klebsiella pneumoniae [4] it was 15 mm; in the experiment on Pseudomonas aeruginosa [5], 11 mm.
Take `COc1ccc(-c2ccc(-c3nn4c(Cc5ccc(SC)cc5)nnc4s3)o2)cc1`: the “diameter of the inhibition zone (DIZ)” value in [1] was found to be 18 mm; in the experiment on Candida albicans, 10 mm; with Aspergillus fumigatus, 22 mm; with Aspergillus flavus, 18 mm. Moreover, the MIC in [1] worked out at 6 µg/mL (≈ 13.8 µM); in the experiment with Candida albicans, 25 µg/mL (≈ 57.5 µM); in the experiment with Staphylococcus aureus [2], 25 µg/mL (≈ 57.5 µM); in the experiment with Aspergillus fumigatus, 6 µg/mL (≈ 13.8 µM); against Aspergillus flavus it was 12.5 µg/mL (≈ 28.8 µM); against Escherichia coli [3], 12.5 µg/mL (≈ 28.8 µM). Also, the MIC with Klebsiella pneumoniae [4] and against Pseudomonas aeruginosa [5] was 12.5 µg/mL (≈ 28.8 µM) each time. The “inhibition zone (IZ)” value turned out to be 14 mm with Staphylococcus aureus [2], 16 mm with Escherichia coli [3], 18 mm with Klebsiella pneumoniae [4] and 17 mm with Pseudomonas aeruginosa [5].
In the case of `CSc1ccc(Cc2nnc3sc(-c4ccc(-c5ccc([N+](=O)[O-])cc5)o4)nn23)cc1`, the “diameter of the inhibition zone (DIZ)” value in [1] is 11 mm; in the experiment on Candida albicans it was 17 mm; with Aspergillus fumigatus it was 14 mm; in the experiment on Aspergillus flavus, 11 mm. The MIC in experiment [1] turned out to be 25 µg/mL (≈ 55.6 µM); against Candida albicans, 12.5 µg/mL (≈ 27.8 µM); against Staphylococcus aureus [2] it was 25 µg/mL (≈ 55.6 µM); in the experiment with Aspergillus fumigatus it was 25 µg/mL (≈ 55.6 µM); against Aspergillus flavus it was 25 µg/mL (≈ 55.6 µM); with Escherichia coli [3] it was 25 µg/mL (≈ 55.6 µM). For the same compound, the results for the MIC in the experiment with Klebsiella pneumoniae [4] and with Pseudomonas aeruginosa [5] were 12.5 µg/mL (≈ 27.8 µM) and 25 µg/mL (≈ 55.6 µM), respectively. In addition, the “inhibition zone (IZ)” value is reported as 16 mm in the experiment with Staphylococcus aureus [2], 17 mm with Escherichia coli [3], 20 mm in the experiment with Klebsiella pneumoniae [4] and 10 mm in the experiment with Pseudomonas aeruginosa [5].
